Laboratory results reported in patent publication US11684614B2, “Formulations of hydroxypyridonate actinide/lanthanide decorporation agents” (priority 2017, dated 2023).
Where “and” joins values, the source holds several entries; their conditions need not be identical. Equal entries are not always repeated.

Assay: Repeated-treatment efficacy for removing an intravenous dose of 238Pu (excretion, tissue retention, clinical observations), female and male arms
Type: in vivo, Swiss-Webster mice
Details: for % Recovered Dose-Female Animals-Urine per Day-Day 11 Necropsy: animal group H
Protocol: The objective of this study was to characterize the efficacy of 3,4,3-L1(1,2-HOPO) at enhancing elimination from an internal plutonium burden in female and male Swiss-Webster mice administered a soluble citrate complex of ^238Pu and treated multiple times, starting at 24 hours after the exposure. Efficacy was evaluated by comparing the tissue contents, urinary and fecal excretions of ^238Pu in treated animals versus untreated animals.
The medical countermeasure 3,4,3-L1(1,2-HOPO) was administered parenterally (ip) or orally (po) via consecutive injections or gavages (six daily or twelve twice daily) starting at 24 hours post contamination at the following four selected doses: 30 μmol/kg ip, 150 μmol/kg po, 300 μmol/kg po, and 600 μmol/kg po (equivalent to respective approximate human doses range of […], using the accepted conversion system of mouse doses into human equivalent doses—HED—based on body surface area). Oral doses also included the permeability enhancer selected during formulation development work.
• Challenge isotope: ^238Pu • Challenge dose: 25 nCi (i.e., approximately 0.8 μCi/kg) • Route of contamination: Intravenous (iv) tail-vein • Route of treatment: Intraperitoneal Injection (ip) or Oral (po) • Frequency of treatment: Multiple (once- or twice-daily for 6 days) doses, starting 24 hr postcontamination • Treatment dose calculation: Dose calculations (mg/kg or μmol/kg) for the decorporation agent were based on the individual body weight measured after contamination. • Study Duration: 11 days, in-life
c. […] Test article and control dose formulations were prepared within 1 day of dose administration, by weighing out the appropriate amount of test article, dispersing in vehicle. For ip solutions, the test article was used alone, while for oral suspensions, a mixture of test article and excipient (90:10, w:w) was used. The pH was adjusted to 7.0-7.4 for ip administration and 5.0-5.5 for oral administration with sterile NaOH. Dose formulations were prepared at room temperature and filter-sterilized. • Storage: 2-8° C.; refrigerated; protected from light. • Characterization: The concentration of each test article formulation was verified by high-performance liquid chromatography-mass spectrometry. • Test Article Handling: Test, reference, and control article formulations were handled with the use of eye protection, gloves, and a protective laboratory coat. • Correct Dose Assurance: The test article was weighed with calibrated balances. The administration of each dose formulation was properly documented, and the amount administered to each animal recorded.
e. Experimental Procedures (In-Life Evaluations and Euthanasia) • Contamination: Single administration by intravenous (iv) tail-vein injection (0.2 mL injection volume) under isoflurane anesthesia. Three standard 0.2 mL injections were performed into polyethylene bottles and pre-loaded with aliquots of concentrated nitric acid on each injection day. Six female and six male mice were culled for necropsy 1 hr post-contamination and were used as standards. A11 standards were processed and counted together with the final samples to allow verification of the contamination dose. • Dose Administration: Single administration by intraperitoneal injection (ip) or oral gavage (po) under isoflurane anesthesia. • Mortality/Morbidity: Assessed at least once daily. • Clinical Observations: Recorded once daily (4 hr post-dose on day of treatment), or more often as clinical signs warranted. […]

O=C(NCCCN(CCCCN(CCCNC(=O)c1cccc(=O)n1O)C(=O)c1cccc(=O)n1O)C(=O)c1cccc(=O)n1O)c1cccc(=O)n1O [3,4,3-L1(1,2-HOPO)]
% Recovered Dose-Female Animals-Feces per Day-Day 7 Necropsy (animal group B, day 1, female mice): 9.41%
% Recovered Dose-Female Animals-Feces per Day-Day 7 Necropsy (animal group B, day 2, female mice): 8.35%
% Recovered Dose-Female Animals-Feces per Day-Day 7 Necropsy (animal group B, day 3, female mice): 2.59%
% Recovered Dose-Female Animals-Feces per Day-Day 7 Necropsy (animal group B, day 4, female mice): 1.99%
% Recovered Dose-Female Animals-Feces per Day-Day 7 Necropsy (animal group B, day 5, female mice): 2.39%
% Recovered Dose-Female Animals-Feces per Day-Day 7 Necropsy (animal group B, day 6, female mice): 2.12%
% Recovered Dose-Female Animals-Feces per Day-Day 7 Necropsy (animal group B, day 7, female mice): 1.74%
% Recovered Dose-Female Animals-Feces per Day-Day 7 Necropsy (animal group C, day 1, female mice, listed as 3,4,3-LI(1,2-HOPO)): 11.51% and 5.30% and 8.74% and 7.20%
% Recovered Dose-Female Animals-Feces per Day-Day 7 Necropsy (animal group C, day 2, female mice, listed as 3,4,3-LI(1,2-HOPO)): 13.77% and 8.33% and 12.44% and 14.41%
% Recovered Dose-Female Animals-Feces per Day-Day 7 Necropsy (animal group C, day 3, female mice, listed as 3,4,3-LI(1,2-HOPO)): 4.51% and 3.49% and 4.66% and 4.88%
% Recovered Dose-Female Animals-Feces per Day-Day 7 Necropsy (animal group C, day 4, female mice, listed as 3,4,3-LI(1,2-HOPO)): 3.35% and 3.00% and 3.74% and 4.08%
% Recovered Dose-Female Animals-Feces per Day-Day 7 Necropsy (animal group C, day 5, female mice, listed as 3,4,3-LI(1,2-HOPO)): 2.71% and 2.82% and 2.30% and 2.85%
% Recovered Dose-Female Animals-Feces per Day-Day 7 Necropsy (animal group C, day 6, female mice, listed as 3,4,3-LI(1,2-HOPO)): 2.52% and 2.18% and 2.39% and 3.01%
% Recovered Dose-Female Animals-Feces per Day-Day 7 Necropsy (animal group C, day 7, female mice, listed as 3,4,3-LI(1,2-HOPO)): 2.15% and 1.62% and 1.98% and 2.66%
% Recovered Dose-Female Animals-Feces per Day-Day 7 Necropsy (animal group E, day 1, female mice, listed as 3,4,3-LI(1,2-HOPO)): 6.10% and 10.77% and 13.26% and 10.08%
% Recovered Dose-Female Animals-Feces per Day-Day 7 Necropsy (animal group E, day 2, female mice, listed as 3,4,3-LI(1,2-HOPO)): 8.15% and 10.30% and 9.61% and 15.30%
% Recovered Dose-Female Animals-Feces per Day-Day 7 Necropsy (animal group E, day 3, female mice, listed as 3,4,3-LI(1,2-HOPO)): 2.89% and 5.25% and 5.53% and 2.67%
% Recovered Dose-Female Animals-Feces per Day-Day 7 Necropsy (animal group E, day 4, female mice, listed as 3,4,3-LI(1,2-HOPO)): 2.76% and 3.97% and 4.52% and 2.90%
% Recovered Dose-Female Animals-Feces per Day-Day 7 Necropsy (animal group E, day 5, female mice, listed as 3,4,3-LI(1,2-HOPO)): 1.35% and 1.95% and 2.80% and 2.17%
% Recovered Dose-Female Animals-Feces per Day-Day 7 Necropsy (animal group E, day 6, female mice, listed as 3,4,3-LI(1,2-HOPO)): 1.90% and 1.34% and 2.01% and 2.18%
% Recovered Dose-Female Animals-Feces per Day-Day 7 Necropsy (animal group E, day 7, female mice, listed as 3,4,3-LI(1,2-HOPO)): 2.23% and 1.29% and 1.91% and 2.16%
% Recovered Dose-Female Animals-Feces per Day-Day 7 Necropsy (animal group F, day 1, female mice, listed as 3,4,3-LI(1,2-HOPO)): 9.32% and 9.52% and 7.17% and 5.19%
% Recovered Dose-Female Animals-Feces per Day-Day 7 Necropsy (animal group F, day 2, female mice, listed as 3,4,3-LI(1,2-HOPO)): 8.03% and 12.87% and 9.08% and 6.87%
% Recovered Dose-Female Animals-Feces per Day-Day 7 Necropsy (animal group F, day 3, female mice, listed as 3,4,3-LI(1,2-HOPO)): 2.78% and 4.30% and 4.68% and 2.63%
% Recovered Dose-Female Animals-Feces per Day-Day 7 Necropsy (animal group F, day 4, female mice, listed as 3,4,3-LI(1,2-HOPO)): 2.68% and 3.98% and 3.14% and 2.89%
% Recovered Dose-Female Animals-Feces per Day-Day 7 Necropsy (animal group F, day 5, female mice, listed as 3,4,3-LI(1,2-HOPO)): 2.30% and 3.01% and 3.85% and 3.00%
% Recovered Dose-Female Animals-Feces per Day-Day 7 Necropsy (animal group F, day 6, female mice, listed as 3,4,3-LI(1,2-HOPO)): 2.40% and 2.04% and 2.26% and 1.91%
% Recovered Dose-Female Animals-Feces per Day-Day 7 Necropsy (animal group F, day 7, female mice, listed as 3,4,3-LI(1,2-HOPO)): 1.39% and 1.59% and 2.15% and 2.13%
% Recovered Dose-Female Animals-Urine per Day-Day 11 Necropsy (day 1, female mice, listed as 3,4,3-LI(1,2-HOPO)): 9.33% and 10.42% and 5.66% and 9.35% and 11.13% and 9.41% and 6.93% and 9.39%
% Recovered Dose-Female Animals-Urine per Day-Day 11 Necropsy (day 2, female mice, listed as 3,4,3-LI(1,2-HOPO)): 3.78% and 5.22% and 5.30% and 4.96% and 5.23% and 5.12% and 3.93% and 5.10%
% Recovered Dose-Female Animals-Urine per Day-Day 11 Necropsy (day 3, female mice, listed as 3,4,3-LI(1,2-HOPO)): 4.12% and 4.15% and 6.39% and 5.55% and 5.41% and 4.29% and 3.92% and 3.16%
% Recovered Dose-Female Animals-Urine per Day-Day 11 Necropsy (day 4, female mice, listed as 3,4,3-LI(1,2-HOPO)): 2.95% and 3.74% and 4.22% and 3.34% and 3.22% and 4.38% and 2.99% and 5.19%
% Recovered Dose-Female Animals-Urine per Day-Day 11 Necropsy (day 5, female mice, listed as 3,4,3-LI(1,2-HOPO)): 3.24% and 2.72% and 3.06% and 2.44% and 3.11% and 2.27% and 1.41% and 2.10%
% Recovered Dose-Female Animals-Urine per Day-Day 11 Necropsy (day 6, female mice, listed as 3,4,3-LI(1,2-HOPO)): 1.23% and 2.05% and 2.60% and 1.54% and 1.89% and 1.51% and 0.91% and 1.79%
% Recovered Dose-Female Animals-Urine per Day-Day 11 Necropsy (day 7, female mice, listed as 3,4,3-LI(1,2-HOPO)): 1.33% and 1.66% and 2.35% and 1.27% and 1.38% and 1.35% and 1.24% and 1.89%
